Results on 33 compounds are retold here after patent publication US8088758B2, “17β-hydroxysteroid dehydrogenase type I inhibitors” (Abbott Products GmbH, priority 2003, dated 2012).

The term inhibition denotes the change of the read-out against control, counted positive when it falls.

The target of this experiment is T1, recombinant human 17β-hydroxysteroid dehydrogenase type 1 (Homo sapiens, UniProt P14061).
T1 construct: made in house; host or cells: Sf9 insect cells (baculovirus, Bac to Bac Expression System)
T1 sequence (P14061 1-328): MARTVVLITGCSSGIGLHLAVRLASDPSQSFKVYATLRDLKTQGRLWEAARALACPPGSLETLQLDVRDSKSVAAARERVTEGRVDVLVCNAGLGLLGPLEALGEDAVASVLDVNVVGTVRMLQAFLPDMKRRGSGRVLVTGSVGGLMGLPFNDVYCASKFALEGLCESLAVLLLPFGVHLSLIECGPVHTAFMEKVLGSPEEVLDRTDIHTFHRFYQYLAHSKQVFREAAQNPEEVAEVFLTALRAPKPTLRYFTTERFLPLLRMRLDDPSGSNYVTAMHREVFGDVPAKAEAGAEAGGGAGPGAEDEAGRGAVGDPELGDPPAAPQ
Description: Inhibition of recombinant human 17β-hydroxysteroid dehydrogenase type 1 (conversion of 3H-estrone to estradiol, HPLC). In kind it is biochemical. The settings on record: 30 nM 3H-estrone, 1 mM NADPH, 30 min at RT; for inhibition at 0.1 µM: inhibitor 100 nM, read-out: Inhibition of rec. 17β-HSD1 (% inhibition), 100 nM; for inhibition at 1 µM: inhibitor 1 μm, read-out: Inhibition of rec. 17β-HSD1 (% inhibition), 1 μm. The protocol:
1. Inhibition of the 17β-hydroxysteroid Dehydrogenase Type 1 Enzyme
17β-HSD1 Purification: Recombinant baculovirus was generated by the “Bac to Bac Expression System” (Invitrogen). Recombinant bacmid was transfected to Sf9 insect cells using “Cellfectin Reagent” (Invitrogen). 60 h later cells were harvested; the microsomal fraction was isolated as described by Puranen et al. 1994. Aliquots were stored frozen until determination of enzymatic activity.
Assay—Inhibition of Recombinant Human 17β-hydroxysteroid Dehydrogenase Type 1:
Recombinant protein (0.1 μg/ml) was incubated in 20 mM KH2PO4 pH 7.4 with 30 nM 3H-estrone and 1 mM NADPH for 30 min at RT, in the presence of potential inhibitors at concentrations of 1 μM or 0.1 μM. Inhibitor stock solutions were prepared in DMSO. Final concentration of DMSO was adjusted to 1% in all samples. The enzyme reaction was stopped by addition of 10% trichloroacetic acid (final concentration). Samples were centrifuged in a microtiter plate at 4000 rpm for 10 min. Supernatants were applied to reverse phase HPLC on a Waters Symmetry C18 column, equipped with a Waters Sentry Guard column. Isocratic HPLC runs were performed at RT at a flow rate of 1 ml/min of acetonitrile:water 48:52 as running solvent. Radioactivity was monitored in the eluate by a Packard Flow Scintillation Analyzer. Total radioactivity for estrone and estradiol were determined in each sample and percent conversion of estrone to estradiol was calculated according to the following formula:
Percent inhibition was calculated as follows: % inhibition=100−% conversion

Turning to `COc1ccc2c(c1)CC[C@H]1[C@@H]3[C@H](CCCCCC(=O)NCCc4cccs4)CC(=O)[C@@]3(C)CC[C@H]21` [Example 366], the inhibition at 0.1 µM came out at 56.3% and the inhibition at 1 µM was 94.4%.

With `CNC(=O)CCC[C@@H]1CC(=O)[C@@]2(C)CC[C@@H]3c4ccc(OC)cc4CC[C@H]3[C@H]12` [Example 4B, 4-(3-Methoxy-17-oxo-estra-1,3,5(10)-trien-15β-yl)-N-methyl-butyramide], the inhibition at 0.1 µM worked out at 30.5% and the inhibition at 1 µM is 60.8%.

On to `COc1ccc2c(c1)CC[C@H]1[C@@H]3[C@H](CCCCC(=O)NCc4ccco4)CC(=O)[C@@]3(C)CC[C@H]21` [Example 333], for which the inhibition at 0.1 µM turned out to be 47.9% and the inhibition at 1 µM came to 91%.

For the compound `COc1ccc2c(c1)CC[C@H]1[C@@H]3[C@H](CCCCCC(=O)NCc4cccnc4)CC(=O)[C@@]3(C)CC[C@H]21` [Example 356], the inhibition at 0.1 µM turned out to be 26.9% and the inhibition at 1 µM was 83.9%.

As to `C[C@]12CC[C@@H]3c4ccc(O)cc4CC[C@H]3[C@@H]1[C@@H](CNS(=O)(=O)c1ccc([N+](=O)[O-])cc1)CC2=O` [Example 667], the inhibition at 0.1 µM worked out at 30.3% and the inhibition at 1 µM was found to be 72.3%.

As to `COc1ccc2c(c1)CC[C@H]1[C@@H]3[C@H](CCCCCC(=O)NCc4ccccc4OC)CC(=O)[C@@]3(C)CC[C@H]21` [Example 360], the inhibition at 0.1 µM is 41.5% and the inhibition at 1 µM was 85.6%.

Turning to `COc1ccc(S(=O)(=O)N(C)C[C@H]2CC(=O)[C@@]3(C)CC[C@@H]4c5ccc(O)cc5CC[C@H]4[C@H]23)cc1` [Example 688], the inhibition at 0.1 µM was determined as 47.4% and the inhibition at 1 µM is 91.3%.

For `COc1ccc(S(=O)(=O)NC[C@H]2CC(=O)[C@@]3(C)CC[C@@H]4c5ccc(O)cc5CC[C@H]4[C@H]23)cc1` [Example 668], the inhibition at 0.1 µM was 52.4% and the inhibition at 1 µM was determined as 88.3%.

Regarding `COc1ccc2c(c1)CC[C@H]1[C@@H]3[C@H](CCCOC(=O)Nc4ccc(Cl)cc4Cl)CC(=O)[C@@]3(C)CC[C@H]21` [Example 744], the inhibition at 0.1 µM turned out to be 37.1% and the inhibition at 1 µM stood at 53.9%.

With `COc1ccc2c(c1)CC[C@H]1[C@@H]3[C@H](CCCCC(=O)NC4CC4)CC(=O)[C@@]3(C)CC[C@H]21` [Example 330], the inhibition at 0.1 µM is 25.2% and the inhibition at 1 µM stood at 75.9%.

Regarding `COc1ccc2c(c1)CCC1C2CC[C@]2(C)C(=O)C[C@H](C(=O)N(C)Cc3cccc4ccccc34)C12` (stereo partly drawn) [Example 152], the inhibition at 0.1 µM worked out at 25.6% and the inhibition at 1 µM came out at 41.4%.

In the case of `COc1ccc2c(c1)CC[C@H]1[C@@H]3[C@H](CCCCCC(=O)NCCc4c[nH]c5c(C)cccc45)CC(=O)[C@@]3(C)CC[C@H]21` [Example 367], the inhibition at 0.1 µM was 51.5% and the inhibition at 1 µM came out at 73.5%.

In the case of `COc1ccc2c(c1)CC[C@H]1[C@@H]3[C@H](CCCCC(=O)NCc4ccncc4)CC(=O)[C@@]3(C)CC[C@H]21` [Example 339], the inhibition at 0.1 µM is 25.9% and the inhibition at 1 µM was determined as 82.9%.

As to `COc1ccc2c(c1)CC[C@H]1[C@@H]3[C@H](CCCCCC(=O)NCc4ccco4)CC(=O)[C@@]3(C)CC[C@H]21` [Example 350], the inhibition at 0.1 µM worked out at 27.7% and the inhibition at 1 µM was 80.7%.

With `COc1ccc2c(c1)CC[C@H]1[C@@H]3[C@H](CCCC(=O)NCc4ccccc4)CC(=O)[C@@]3(C)CC[C@H]21` [Example 3B, N-Benzyl-4-(3-methoxy-17-oxo-estra-1,3,5(10)-trien-15β-yl)-butyramide], the inhibition at 0.1 µM is 77.4% and the inhibition at 1 µM was found to be 82.1%.

Regarding `CCOC(=O)Cc1csc(NC(=O)CC[C@@H]2CC(=O)[C@@]3(C)CC[C@@H]4c5ccc(OC)cc5CC[C@H]4[C@H]23)n1` [Example 314], the inhibition at 0.1 µM turned out to be 33.6% and the inhibition at 1 µM worked out at 62.1%.

For `COc1ccc2c(c1)CC[C@H]1[C@@H]3[C@H](CCCCOC(=O)Nc4cccc(F)c4)CC(=O)[C@@]3(C)CC[C@H]21` [Example 751], the inhibition at 0.1 µM was 27.7% and the inhibition at 1 µM is 67.7%.

For the compound `COc1ccc2c(c1)CC[C@H]1[C@@H]3[C@H](CCCCC(=O)NCCc4c[nH]c5c(C)cccc45)CC(=O)[C@@]3(C)CC[C@H]21` [Example 347], the inhibition at 0.1 µM worked out at 38% and the inhibition at 1 µM was found to be 77.2%.

Take `COc1ccc2c(c1)CC[C@H]1[C@@H]3[C@H](CCCCCC(=O)NCc4ccc(Cl)cc4)CC(=O)[C@@]3(C)CC[C@H]21` [Example 362]: the inhibition at 0.1 µM turned out to be 35.1% and the inhibition at 1 µM turned out to be 75.1%.

Regarding `Cc1cccc(S(=O)(=O)N(C)C[C@H]2CC(=O)[C@@]3(C)CC[C@@H]4c5ccc(O)cc5CC[C@H]4[C@H]23)c1` [Example 694], the inhibition at 0.1 µM is 34.6% and the inhibition at 1 µM amounted to 87.3%.

Consider `CN(C[C@H]1CC(=O)[C@@]2(C)CC[C@@H]3c4ccc(O)cc4CC[C@H]3[C@H]12)S(=O)(=O)c1ccccc1` [Example 684], for which the inhibition at 0.1 µM was 31.3% and the inhibition at 1 µM was 86.9%.

In the case of `COc1ccc2c(c1)CC[C@H]1[C@@H]3[C@H](CCC(=O)N4CCOCC4)CC(=O)[C@@]3(C)CC[C@H]21` [Example 316], the inhibition at 0.1 µM was 25.3% and the inhibition at 1 µM came to 74.5%.

Regarding `COc1ccc2c(c1)CCC1C2CC[C@]2(C)C(=O)C[C@H](C(=O)NCc3nc4ccccc4[nH]3)C12` (stereo partly drawn) [Example 58], the inhibition at 0.1 µM stood at 25% and the inhibition at 1 µM stood at 65.3%.

For `C[C@]12CC[C@@H]3c4ccc(O)cc4CC[C@H]3[C@@H]1[C@H](CCCC(=O)NCc1ccc(F)cc1F)CC2=O` [Example 37, N-(2,4-Difluoro-benzyl)-4-(3-hydroxy-17-oxo-estra-1,3,5(10)-trien-15β-yl)-butyramide], the inhibition at 0.1 µM was 47.4% and the inhibition at 1 µM was 87.2%.

In the case of `C[C@]12CC[C@@H]3c4ccc(O)cc4CC[C@H]3[C@@H]1[C@@H](CCCC(=O)NCc1ccccc1)CC2=O` [Example 39, N-Benzyl-4-(3-hydroxy-17-oxo-estra-1,3,5(10)-trien-15α-yl)-butyramide], the inhibition at 0.1 µM is 41.8% and the inhibition at 1 µM is 82.4%.

As for `COc1ccc2c(c1)CC[C@H]1[C@@H]3[C@H](CCCNC(=O)NC4CCCCC4)CC(=O)[C@@]3(C)CC[C@H]21` [Example 450], the inhibition at 0.1 µM was 34% and the inhibition at 1 µM is 80.7%.

For `COc1ccc2c(c1)CC[C@H]1[C@@H]3[C@H](CCC(=O)NCCc4cccs4)CC(=O)[C@@]3(C)CC[C@H]21` [Example 327], the inhibition at 0.1 µM came out at 28.7% and the inhibition at 1 µM stood at 77%.

`C[C@]12CC[C@@H]3c4ccc(O)cc4CC[C@H]3[C@@H]1[C@@H](CNS(=O)(=O)c1ccccc1)CC2=O` [Example 664]: the inhibition at 0.1 µM amounted to 60.5% and the inhibition at 1 µM turned out to be 92.7%.

For `COc1ccc2c(c1)CC[C@H]1[C@@H]3[C@H](CCCCNC(=O)Nc4ccc(OC)c(OC)c4)CC(=O)[C@@]3(C)CC[C@H]21` [Example 488], the inhibition at 0.1 µM turned out to be 60.3% and the inhibition at 1 µM was 91.6%.

For `COc1ccc2c(c1)CC[C@H]1[C@@H]3[C@H](CCCCCC(=O)NCc4ccccc4)CC(=O)[C@@]3(C)CC[C@H]21` [Example 359], the inhibition at 0.1 µM is 40.5% and the inhibition at 1 µM was 88.3%.

With `Cc1cccc(S(=O)(=O)NC[C@H]2CC(=O)[C@@]3(C)CC[C@@H]4c5ccc(O)cc5CC[C@H]4[C@H]23)c1` [Example 677], the inhibition at 0.1 µM was found to be 36.9% and the inhibition at 1 µM was found to be 83.7%.

Turning to `COc1ccc2c(c1)CC[C@H]1[C@@H]3[C@H](CCCOC(=O)Nc4ccc(C(F)(F)F)cc4)CC(=O)[C@@]3(C)CC[C@H]21` [Example 745], the inhibition at 0.1 µM came out at 29.9% and the inhibition at 1 µM was 53.5%.

`COc1ccc(NC(=O)NCCC[C@@H]2CC(=O)[C@@]3(C)CC[C@@H]4c5ccc(OC)cc5CC[C@H]4[C@H]23)cc1` [Example 446]: the inhibition at 0.1 µM worked out at 72.4% and the inhibition at 1 µM worked out at 94.2%.
